Measurements taken from patent publication US20260263357A1, “PHASE SHIFTING INTRAVITREAL TAMPONADE” (Avant Sciences, Inc., priority 2023, published 2026).
Where two headings read alike, the source gives them in different places.

Experiments:
[1] = Table 5; cited from earlier work
[2] = cited from earlier work
[3] = cited from earlier work; remark: listed apart in the source
[4] = Experimental ultrasound absorbance (amplitude attenuation coefficient); type: physicochemical
Text: In some embodiments, the compounds of Structure 1 are capable of absorbing ultrasonic wave energy. The capacity of a given chemical to convert applied ultrasound from vibrational energy into heat is termed its ultrasonic absorbance, which itself varies depending upon the initial temperature and the frequency of the applied ultrasound. Additionally, the native vitreous within biological tissues approximates that of water, which itself has an ultrasonic absorption profile; thus, there is a baseline transmission of acoustic energy through ocular tissues, and this characteristic is routinely leveraged when it comes to various forms of imaging and therapy (Southern, Australas J Ultrasound Med. 2009 February; 12 (1): 32-37). In some embodiments, a compound that can preferentially absorb ultrasound more readily than that of water has the capacity to disproportionately absorb applied ultrasonic energy versus that of vitreous within the vitreous cavity. As such absorption would lead to local increase in temperature, thus facilitate the phase shift to a gaseous state.
With reference to Table 3, a compound with a larger amplitude attenuation coefficient absorbs ultrasound more than a compound that has a lower amplitude attenuation coefficient. It is clear that each of the compounds of Structure 1 (as shown in Table 3) is orders of magnitude more likely to absorb ultrasonic energy than water/vitreous. […] Indeed, it is notable that water, the least absorptive compound shown, is not only clearly symmetric on both a rotational axis and the mirror plane, but also has some of the strongest hydrogen bond forces in all of chemistry, allowing it to “pack itself together” much more readily than the other compounds on the list.

[5] = system: New Zealand white rabbits; test: Fundus imaging of tamponade bubble after injection into rabbit vitreous cavity (phase shift and removal); type: in vivo; conditions: 8 microliters injected into rabbit vitreous cavity
Procedure: The biological safety of a compound of Structure 1 is tested within an animal model. In particular, 2,2,2-Trifluoroethyl 1,1,2,2-tetrafluoroethyl ether was tested within a New Zealand white rabbits, an animal model in line with previous retinal tamponade studies (Santos et al., Retina, 33 (1): p 120-127 (1991)).
FIG. 1A includes a set of control retinal fundus images (near-infrared images IR and corresponding color images MC) for which balanced salt solution BSS (effectively water) was injected into a rabbit vitreous cavity. […] In other words, 2,2,2-Trifluoroethyl 1,1,2,2-tetrafluoroethyl ether was empirically determined to successfully phase shift under biological conditions at around 1 week post placement, and then subsequently carried out of the body over the next 2 months. […]
FIG. 6A includes a set of control retinal fundus images (near-infrared images IR and corresponding color images MC) for which balanced salt solution BSS (effectively water) was injected into a rabbit vitreous cavity. […] In other words, 1,1,2,3,3,3-Hexafluoropropyl difluoromethyl ether was empirically determined to successfully phase shift under biological conditions at around 1-3 days post placement, and then subsequently fully carried out of the body by Day 8. […]

[6] = system: New Zealand white rabbits; test: Intraocular pressure measurements after intravitreal injection; type: in vivo, rabbit
Text: (§1) Additionally, to address concerns about biological toxicity of these compounds, intraocular pressure measurements and both scotopic a-wave, b-wave, and photopic b-wave ERGs were done on all 6 rabbits in the study, without any statistically notable adverse signals (FIG. 2-5).
Additionally, to address concerns about biological toxicity of these compounds, intraocular pressure measurements were done on all 4 rabbits in the study, without any statistically notable adverse signals.

[7] = system: New Zealand white rabbits; test: Scotopic a-wave, b-wave and photopic b-wave ERGs after intravitreal injection; type: in vivo, rabbit; conditions: baseline and 2 months
Text: as §1

[8] = Table 1, selected fluorinated alkanes
[9] = 4 rabbits, up to about 1 month after injection, FIG. 7
[10] = Table 2, selected fluorinated ethers
[11] = 6 rabbits, up to about two months after injection, FIG. 2

Compound | Density [1] [g/mL] | Boiling Point ([2]; Table 5) [°C] | Flammable? [3, 8] | Flammable? [3, 10] | Boiling Point [2, 10] [°C] | further results
FC(C(F)(F)F)C(F)(F)OCC(F)(F)C(F)(F)C(F)(F)F (centres unmarked) [1,1,1,2,2,3,3-Heptafluoro-4-(1,1,2,3,3,3-hexafluoropropoxy)butane, reference compound] | 1.63 | 102 |  |  |  | 
FC(F)C(F)(F)C(F)(F)F [1,1,1,2,2,3,3-Heptafluoropropane] |  |  | No |  |  | Boiling Point [2, 8]: −16 °C
FCCC(F)(F)F [1,1,1,3-Tetrafluoropropane] |  |  | YES |  |  | 
FC(F)C(F)(F)C(F)F [1,1,2,2,3,3-Hexafluoropropane] |  |  | No |  |  | Boiling Point [2, 8]: 5 °C
FCC(F)(F)C(F)F [1,1,2,2,3-Pentafluropropane] |  |  | YES |  |  | Boiling Point [2, 8]: 26 °C
FC(F)C(F)(F)COCC(F)(F)C(F)F [1,1,2,2-Tetrafluoro-3-(2,2,3,3-tetrafluoropropoxy)propane, reference compound] | 1.627 | 35 |  |  |  | 
FC(F)OC(F)(F)C(F)C(F)(F)F (centres unmarked) [1,1,2,3,3,3-Hexafluoropropyl difluoromethyl ether] | 1.5 | 47 |  | No | 47 | Amplitude Attenuation Coefficient [4]: 3.35 db/cm-MHz; Day by which agent is fully carried out of the body ([5]; fundus images to D30): ≤ 8 days; Intraocular pressure compared to control (Balanced Salt Solution) [6, 9]: not significantly different; Intraocular pressure relative to normal physiologic range [6, 9]: nor were their intraocular pressures outside of normal physiologic range throughout the study
FCCC(F)F [1,1,3-Trifluoropropane] |  |  | YES |  |  | 
CC(F)(F)OCC(F)(F)F [1,1-Difluoroethyl 2,2,2-trifluoroethyl ether] |  |  |  | YES |  | 
COC(F)C(F)(F)F (centres unmarked) [1,2,2,2-Tetrafluoroethyl methyl ether] |  |  |  | YES |  | 
FC(F)C(F)(F)OCC(F)(F)F [2,2,2-Trifluoroethyl 1,1,2,2-tetrafluoroethyl ether] | 1.487 | 56.7 |  | No | 56 | Amplitude Attenuation Coefficient [4]: 2.65 db/cm-MHz; Time over which agent is carried out of the body after phase shift ([5]; fundus images to D56): ~2 months; Intraocular pressure compared to control (Balanced Salt Solution) [6, 11]: not significantly different; Intraocular pressure relative to normal physiologic range [6, 11]: nor were their intraocular pressures outside of normal physiologic range throughout the study; Scotopic a-wave ERG amplitude (rod and cone cells, dark-adapted) vs control (Balanced Salt Solution) ([7]; FIG. 3): no significant difference; Scotopic b-wave ERG amplitude (bipolar cells, dark-adapted) vs control (Balanced Salt Solution) ([7]; FIG. 4): no significant difference; Photopic b-wave ERG amplitude (bipolar cells, light-adapted) vs control (Balanced Salt Solution) ([7]; FIG. 5): no significant difference
FCOCF [Bis(fluoromethyl) ether] |  |  |  | YES | 34 | 
FC(F)OCC(F)(F)C(F)(F)F [Difluoromethyl 2,2,3,3,3-pentafluoropropyl ether] | 1.46 | 46 |  | No | 46 | Amplitude Attenuation Coefficient [4]: 0.57 db/cm-MHz
CCOC(F)(F)C(F)(F)F [Ethyl pentafluoroethyl ether] |  |  |  | YES | 30 | 
FC(OC(F)(F)C(F)(F)C(F)(F)F)C(F)(F)F (centres unmarked) [Heptafluoropropyl 1,2,2,2-tetrafluoroethyl ether] | 1.538 | 40 |  | No | 40 | Amplitude Attenuation Coefficient [4]: 3.58 db/cm-MHz
COC(F)(F)C(F)(F)C(F)(F)F [Heptafluoropropyl methyl ether] |  |  |  | No | 34 | 
FC(F)(F)C(F)(F)C(F)(F)F [Perfluoropropane] |  |  | No |  |  | 
O [Water, reference compound] |  |  |  |  |  | Amplitude Attenuation Coefficient [4]: 0.002 db/cm-MHz
COC(F)(F)C(F)F [tetrafluoroethyl methyl ether] |  |  |  | YES | 37 | 
